Source: patent US20100298141A1, “SUBSTITUTED PYRIDINE N-OXIDE HERBICIDES” (E. I. DU PONT DE NEMOURS AND COMPANY, priority 2007, published 2010)

Key:
green foxtail = assay: Test C pre-/postemergence test; assay type: in vivo, Setaria viridis
Method in brief: (§1)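 Compounds in a non-phytotoxic solvent with surfactant applied preemergence to seeded pots and, at the same time, postemergence to plants 2–18 cm tall (1- to 4-leaf stage). Paddy tests: pots flooded to 3 cm, compound applied into the water, depth held throughout.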

velvetleaf = assay: Test A pre-/postemergence greenhouse test; assay type: in vivo, Abutilon theophrasti; settings: for Plant response rating, Velvetleaf: 0 to 100 scale where 0 is no effect and 100 is complete control; for Velvetleaf plant response rating: 0 to 100 scale
Method in brief: (§2)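 Herbicidal effect is a visual injury score given about ten days post-treatment by comparison with untreated controls. Preemergence plots received a directed spray onto sown loam–sand soil; postemergence plants, at the one- to two-leaf stage and 2–10 cm tall, were sprayed at the same time.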

Russian thistle = assay: Test C pre-/postemergence test; assay type: in vivo, Salsola kali; settings: for Plant response rating, Russian Thistle: 31 g ai/ha, scale 0 to 100 (0 no effect, 100 complete control)
Excerpt: Seeds of plant species selected from blackgrass (Alopecurus myosuroides), downy brome (Bromus tectorum), green foxtail (Setaria viridis), Italian ryegrass (Lolium multiflorum), wheat (Triticum aestivum), wild oat (Avena fatua), catchweed bedstraw (Galium aparine), Russian thistle (Salsola kali), […] (Cynodon dactylon), Surinam grass (Brachiaria decumbens), cocklebur (Xanthium strumarium), corn (Zea mays), crabgrass (Digitaria sanguinalis), woolly cupgrass (Eriochloa villosa), giant foxtail (Setaria faberii), Goosegrass (Eleusin indica), johnsongrass (Sorghum halepense), kochia (Kochia scoparia), lambsquarters (Chenopodium album), morningglory (Ipomoea coccinea), eastern black nightshade (Solanum ptycanthum), yellow nutsedge (Cyperus esculentus), pigweed (Amaranthus retroflexus), common ragweed (Ambrosia elation), soybean (Glycine max), common (oilseed) sunflower (Helianthus annuus), and velvetleaf (Abutilon theophrasti) were planted and treated preemergence with test chemicals formulated in a non-phytotoxic solvent mixture which included a surfactant. At the same time, plants selected from these crop and weed species and also winter barley (Hordeum vulgare), canarygrass (Phalaris minor), and chickweed (Stellaria media) were treated with postemergence applications of some of the test chemicals formulated in the same manner. Plants ranged in height from 2 to 18 cm (1- to 4-leaf stage) for postemergence treatments. […] At time of treatment, test pots were flooded to 3 cm above the soil surface, treated by application of test compounds directly to the paddy water, and then maintained at that water depth for the duration of the test. […] A dash (-) response means no test result.

Italian ryegrass = assay: Test C pre-/postemergence test; assay type: in vivo, Lolium multiflorum
Method in brief: as §1

barnyardgrass = assay: Test A pre-/postemergence greenhouse test; assay type: in vivo, Echinochloa crus-galli; settings: for Plant response rating, Barnyardgrass: 0 to 100 scale where 0 is no effect and 100 is complete control; for Barnyardgrass plant response rating: 0 to 100 scale
Method in brief: as §2

[1] = 62 g ai/ha, Preemergence, scale 0 to 100
[2] = 125 g ai/ha, preemergence, scale 0 (no effect) to 100 (complete control)
[3] = Preemergence, 31 g ai/ha, scale 0 to 100 (0 no effect, 100 complete control)
[4] = preemergence, 250 g ai/ha, scale 0 (no effect) to 100 (complete control)
[5] = Postemergence, 500 g ai/ha, 0 is no effect, 100 is complete control
[6] = Preemergence, 125 g ai/ha, 0 no effect, 100 complete control
[7] = Postemergence, 125 g ai/ha, 0 is no effect, 100 is complete control
[8] = Postemergence, 125 g ai/ha, scale 0 to 100, 0 no effect, 100 complete control
[9] = Postemergence, 250 g ai/ha, scale 0 to 100, 0 no effect, 100 complete control
[10] = Preemergence, 500 g ai/ha, 0 no effect, 100 complete control

Structure (SMILES)	Foxtail, Green plant response rating (green foxtail; [1])	Foxtail, Green plant response rating (green foxtail; [2])	Plant response rating, Foxtail, Green (green foxtail; [3])	Foxtail, Green plant response rating (green foxtail; [4])	Plant response rating, Velvetleaf (velvetleaf; Postemergence, 125 g ai/ha)	Velvetleaf plant response rating (velvetleaf; [5])	Velvetleaf plant response rating (velvetleaf; [6])	Plant response rating, Velvetleaf (velvetleaf; Preemergence, 500 g ai/ha)	Russian Thistle plant response rating (Russian thistle; [1])	Russian Thistle plant response rating (Russian thistle; [2])	Plant response rating, Russian Thistle (Russian thistle; Preemergence)	Russian Thistle plant response rating (Russian thistle; [4])	Ryegrass, Italian plant response rating (Italian ryegrass; [1])	Ryegrass, Italian plant response rating (Italian ryegrass; [2])	Plant response rating, Ryegrass, Italian (Italian ryegrass; [3])	Ryegrass, Italian plant response rating (Italian ryegrass; [4])	Plant response rating, Barnyardgrass (barnyardgrass; Postemergence, 125 g ai/ha)	Barnyardgrass plant response rating (barnyardgrass; [5])	Barnyardgrass plant response rating (barnyardgrass; [6])	Plant response rating, Barnyardgrass (barnyardgrass; Preemergence, 500 g ai/ha)	other results
Cn1nc(C(F)(F)F)c(C[S+]([O-])c2ccc(F)c[n+]2[O-])c1Cl (stereo not drawn) [Compound 54]	95	95	60	95	10	70	30	70	30	100	0	100	45	70	0	98	70	80	80	90	
Cn1nc(C(F)(F)F)c(C[S+]([O-])c2cc(C(F)(F)F)cc[n+]2[O-])c1Cl (racemic) [Compound 34]	50		10			60	30	60	100		70		0		0			60	80	100	Plant response rating (0 to 100), Foxtail, Green (green foxtail; Preemergence, 250 g ai/ha): 100; Velvetleaf plant response rating (velvetleaf; [7]): 30; Barnyardgrass plant response rating (barnyardgrass; [7]): 40
CC(c1c(C(F)(F)F)nn(C)c1OC(F)F)S(=O)(=O)c1cc(C(C)(C)C)cc[n+]1[O-] (racemic) [Compound 26]	85		10			0	0	70	50		0		65		0			0	60	90	Plant response rating (0 to 100), Foxtail, Green (green foxtail; Preemergence, 250 g ai/ha): 100; Velvetleaf plant response rating (velvetleaf; [7]): 0; Barnyardgrass plant response rating (barnyardgrass; [7]): 0
CC(c1c(C(F)(F)F)nn(CC(F)(F)F)c1Cl)[S+]([O-])c1cccc[n+]1[O-] (stereo not drawn) [Compound 46]	98	100	95	100	30	40	0	50	0	100		100	55	80	0	100	70	80	80	100	
[O-][n+]1cc(Cl)ccc1[S+]([O-])Cc1c(C(F)(F)F)nn(CC(F)(F)F)c1Cl (stereo not drawn) [Compound 47]	85	90	70	100	60	70	0	100		0		100	20	50	0	85	80	90	90	100	Plant response rating (0 to 100), Foxtail, Green (green foxtail; Postemergence, 31 g ai/ha): 0; Plant response rating, Foxtail, Green (green foxtail; Postemergence, 62 g ai/ha, scale 0 to 100, 0 no effect, 100 complete control): 0; Plant response rating, Foxtail, Green (green foxtail; [8]): 5; Plant response rating, Foxtail, Green (green foxtail; [9]): 80; Plant response rating (0 to 100), Ryegrass, Italian (Italian ryegrass; Postemergence, 31 g ai/ha): 0; Plant response rating (0 to 100), Ryegrass, Italian (Italian ryegrass; Postemergence, 62 g ai/ha): 0; Plant response rating, Ryegrass, Italian (Italian ryegrass; [8]): 0; Plant response rating, Ryegrass, Italian (Italian ryegrass; [9]): 40
CCc1cc[n+]([O-])c([S+]([O-])Cc2c(C(F)(F)F)nn(C)c2OC(F)F)c1 (stereo not drawn) [Compound 101]	95	98	85	100	70	90	80		100	100	100	100		0	0	60	80	90	90		Velvetleaf plant response rating (velvetleaf; [10]): 100; Barnyardgrass plant response rating (barnyardgrass; [10]): 100
Cn1nc(C(F)(F)C(F)(F)F)c(C[S+]([O-])c2ccc(Cl)c[n+]2[O-])c1OCC(F)(F)F (stereo not drawn) [Compound 92]	95	98	90	100	50	90	30		100	100	100	100	80	100	60	100	70	90	60	90	Velvetleaf plant response rating (velvetleaf; [10]): 100
Cc1cc[n+]([O-])c(S(=O)(=O)Cc2c(C(F)(F)C(F)(F)F)nn(C)c2OCC(F)(F)F)c1 [Compound 99]	80	100	80	100	30	60	20		100	100	100	100	70	75	70	100	60	80	70		Velvetleaf plant response rating (velvetleaf; [10]): 100; Barnyardgrass plant response rating (barnyardgrass; [10]): 100
Cn1nc(C(F)(F)F)c(CS(=O)(=O)c2ccc(Cl)c[n+]2[O-])c1Cl [Compound 18]			20			40	0	40	30		0		0		0			80	90	100	Plant response rating (0 to 100), Foxtail, Green (green foxtail; Preemergence, 250 g ai/ha): 100; Velvetleaf plant response rating (velvetleaf; [7]): 0; Barnyardgrass plant response rating (barnyardgrass; [7]): 60
